The text below walks through data of ChEMBL document CHEMBL1127355, “(E)-3-[[[[6-(2-carboxyethenyl)-5-[[8-(4- methoxyphenyl)octyl]oxy]-2-pyridinyl]-methyl]thio]methyl]benzoic acid and related compounds: high affinity leukotriene B4 receptor antagonists” (J Med Chem, 1994).

Each structure is given as a SMILES string. pIC50, pKi: −log10 of the molar value.

The species named for one experiment is Mus musculus. Kind of experiment: Effective concentration required for inhibition of LTB4-induced (250 ng/mL) PMN infiltration. The class given is functional.
`COc1ccc(CCCCCCCCOc2ccc(CSCc3cccc(C(=O)O)c3)nc2/C=C/C(=O)O)cc1` returned an ED50 of 7.1 mg/kg.

The species entered for a further experiment is Homo sapiens. In words: Concentration of test compound required to inhibit 50% LTB4-induced calcium mobilization in intact human PMNs. Type of experiment: functional.
A word on the pIC50: it is the negative decadic logarithm of the IC50, by convention in mol/L. For the molecule `COc1ccc(CCCCCCCCOc2ccc(C[S+]([O-])c3cccc(C(=O)O)c3)nc2/C=C/C(=O)O)cc1` (centres undefined), the pIC50 was 5.41.
On to `COc1ccc(CCCCCCCCOc2ccc(CSc3cccc(C(=O)O)c3)nc2/C=C/C(=O)O)cc1`, for which the pIC50 was 6.26.
For the molecule `COc1ccc(CCCCCCCCOc2ccc(C[S+]([O-])Cc3cccc(C(=O)O)c3)nc2/C=C/C(=O)O)cc1` (centres undefined), the pIC50 is 5.48.
Consider `COc1ccc(CCCCOc2ccc(CSCc3cccc(C(=O)O)c3)nc2CCC(=O)O)cc1`, for which the pIC50 is 5.72.
The same measure, in the same setting: the result for `COc1ccc(CCCCCCCCOc2ccc(CSCc3ccc(C(=O)O)cc3)nc2/C=C/C(=O)O)cc1` reads 6.76; that for `COc1ccc(CCCCCCCCOc2ccc(C[S+]([O-])Cc3ccc(C(=O)O)cc3)nc2/C=C/C(=O)O)cc1` (centres undefined), 5.15; that for `COc1ccc(CCCCCCCCOc2ccc(CSCc3ccccc3C(=O)O)nc2/C=C/C(=O)O)cc1`, 6.15.
Regarding `COc1ccc(CCCCCCCCOc2ccc(CS(=O)(=O)Cc3cccc(C(=O)O)c3)nc2/C=C/C(=O)O)cc1`, the pIC50 was 6.04.
Regarding `O=C(O)/C=C/c1nc(CSCc2cccc(C(=O)O)c2)ccc1OCCCCCCCCc1ccccc1`, the negative-log IC50 (pIC50) was 6.49.
Still for that read-out and setting: the result for `COc1ccc(CCCCCCCCOc2ccc(CSCc3cccc(C(=O)O)c3)nc2/C=C/C(=O)O)cc1` reads 6.88.
On to `COc1ccc(CCCCCCCCOc2ccc(CSCc3cccc(C(=O)O)c3)nc2CCC(=O)O)cc1`, for which the pIC50 was 6.62.
Take `O=C(O)/C=C/c1nc(CSCc2cccc(C(=O)O)c2)ccc1OCCCCc1ccccc1`: the pIC50 is 6.30.
Turning to `COc1ccc(CCCCOc2ccc(CSCc3cccc(C(=O)O)c3)nc2/C=C/C(=O)O)cc1`, the pIC50 is 6.11.

For a further experiment, the species on record is Mus musculus. Kind of experiment: Compound was tested for its effect on mouse ear for reduction of PMN infiltration. The class given is functional.
As to `COc1ccc(CCCCCCCCOc2ccc(CSCc3cccc(C(=O)O)c3)nc2/C=C/C(=O)O)cc1`, the Reduction amounted to 92%.

The next experiment is filed under the species Homo sapiens. In words: Concentration of test compound required to inhibit 50% LTB4-induced degranulation of human PMNs. The class given is functional.
In turn, `COc1ccc(CCCCCCCCOc2ccc(C[S+]([O-])c3cccc(C(=O)O)c3)nc2/C=C/C(=O)O)cc1` (centres undefined) gave a pIC50 of 5.49.
Same read-out and setting: the result for `COc1ccc(CCCCCCCCOc2ccc(CSc3cccc(C(=O)O)c3)nc2/C=C/C(=O)O)cc1` reads 6.00.
For the molecule `COc1ccc(CCCCCCCCOc2ccc(C[S+]([O-])Cc3cccc(C(=O)O)c3)nc2/C=C/C(=O)O)cc1` (centres undefined), the pIC50 was 5.59.
In turn, `COc1ccc(CCCCOc2ccc(CSCc3cccc(C(=O)O)c3)nc2CCC(=O)O)cc1` gave a pIC50 of 5.42.
On to `COc1ccc(CCCCCCCCOc2ccc(CSCc3ccc(C(=O)O)cc3)nc2/C=C/C(=O)O)cc1`, for which the pIC50 is 6.37.
For `COc1ccc(CCCCCCCCOc2ccc(CS(=O)(=O)Cc3cccc(C(=O)O)c3)nc2/C=C/C(=O)O)cc1`, the pIC50 was 6.00.
Same read-out and setting: the result for `O=C(O)/C=C/c1nc(CSCc2cccc(C(=O)O)c2)ccc1OCCCCCCCCc1ccccc1` reads 6.30; that for `COc1ccc(CCCCCCCCOc2ccc(CSCc3cccc(C(=O)O)c3)nc2CCC(=O)O)cc1`, 6.72.
On to `O=C(O)/C=C/c1nc(CSCc2cccc(C(=O)O)c2)ccc1OCCCCc1ccccc1`, for which the pIC50 was 5.77.
For the molecule `COc1ccc(CCCCOc2ccc(CSCc3cccc(C(=O)O)c3)nc2/C=C/C(=O)O)cc1`, the pIC50 was 6.11.

The next experiment deals with Mus musculus. In words: Effective concentration required per ear of mouse for inhibition of edematous response. The class given is functional.
`COc1ccc(CCCCCCCCOc2ccc(CSCc3cccc(C(=O)O)c3)nc2/C=C/C(=O)O)cc1` yielded an ED50 of 0.58 mg.

For another experiment, the target named is Leukotriene B4 receptor 1 (Homo sapiens, UniProt Q15722). Kind of experiment: Binding affinity at leukotriene B4 receptor on intact human PMNs by displacement of [3H]LTB4. On the technique in general: In a radioligand displacement assay an active substance lowers the binding of a labelled ligand.
Chain of Leukotriene B4 receptor 1 (Q15722 whole entry): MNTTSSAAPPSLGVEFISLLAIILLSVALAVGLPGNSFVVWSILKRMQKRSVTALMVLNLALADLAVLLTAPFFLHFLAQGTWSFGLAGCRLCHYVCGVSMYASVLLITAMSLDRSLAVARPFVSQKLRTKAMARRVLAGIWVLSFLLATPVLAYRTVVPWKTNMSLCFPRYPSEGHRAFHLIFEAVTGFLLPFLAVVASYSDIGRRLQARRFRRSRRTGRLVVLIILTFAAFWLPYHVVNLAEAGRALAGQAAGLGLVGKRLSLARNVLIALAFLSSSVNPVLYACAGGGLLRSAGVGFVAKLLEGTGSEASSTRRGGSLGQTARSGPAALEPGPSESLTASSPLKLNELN
One may read the pKi as the negative decadic logarithm of the Ki, by convention in mol/L. A higher pKi goes with a low Ki. Turning to `CCCc1c(OCCCOc2ccc(C(=O)NC)c(OC)c2CC2CC2)ccc2c1O[C@H](CCC(=O)O)CC2`, the pKi is 8.89.
Consider `COc1ccc(CCCCCCCCOc2ccc(C[S+]([O-])c3cccc(C(=O)O)c3)nc2/C=C/C(=O)O)cc1` (centres undefined), for which the pKi is 6.78. Compared with the last molecule, the pKi is 2.11 log units lower.
Still for that read-out and setting: the result for `COc1ccc(CCCCCCCCOc2ccc(C[S+]([O-])Cc3cccc(C(=O)O)c3)nc2/C=C/C(=O)O)cc1` (centres undefined) reads 6.62.
In turn, `COc1ccc(CCCCOc2ccc(CSCc3cccc(C(=O)O)c3)nc2CCC(=O)O)cc1` gave a pKi of 7.55.
Regarding `COc1ccc(CCCCCCCCOc2ccc(CSCc3ccc(C(=O)O)cc3)nc2/C=C/C(=O)O)cc1`, the pKi is 8.24.
Molecule `COc1ccc(CCCCCCCCOc2ccc(C[S+]([O-])Cc3ccc(C(=O)O)cc3)nc2/C=C/C(=O)O)cc1` (centres undefined) had a pKi of 6.79.
The molecule `COc1ccc(CCCCCCCCOc2ccc(CSCc3ccccc3C(=O)O)nc2/C=C/C(=O)O)cc1` showed a pKi of 6.95. This pKi and that of the molecule before are within 0.2 log units of each other.
Consider `COc1ccc(CCCCCCCCOc2ccc(CS(=O)(=O)Cc3cccc(C(=O)O)c3)nc2/C=C/C(=O)O)cc1`, for which the pKi is 7.28.
Still for that read-out and setting: the result for `O=C(O)/C=C/c1nc(CSCc2cccc(C(=O)O)c2)ccc1OCCCCCCCCc1ccccc1` reads 7.81; that for `COc1ccc(CCCCCCCCOc2ccc(CSCc3cccc(C(=O)O)c3)nc2CCC(=O)O)cc1`, 8.10; that for `O=C(O)/C=C/c1nc(CSCc2cccc(C(=O)O)c2)ccc1OCCCCc1ccccc1`, 8.32.
Still for that read-out and setting: the result for `COc1ccc(CCCCOc2ccc(CSCc3cccc(C(=O)O)c3)nc2/C=C/C(=O)O)cc1` reads 8.04.

The species entered for another experiment is Mus musculus. In words: Effective concentration required per ear of mouse for inhibition of neutrophil infiltration. Type of experiment: functional.
Molecule `COc1ccc(CCCCCCCCOc2ccc(CSCc3cccc(C(=O)O)c3)nc2/C=C/C(=O)O)cc1` displayed an ED50 of 0.39 mg.
